Measured values reported in US5849802A, “Fungicidal spirocyclic amines” (American Cyanamid Company, priority 1996, dated 1998).

Tests used:
Venturia inaequalis = assay: In vivo fungicidal activity: Apple Scab (AS); settings: 200 ppm, sprayed before inoculation; also: ranges in brackets are in %
Plasmopara viticola = assay: In vivo fungicidal activity: Grape Downy Mildew (GDM); settings: 200 ppm, sprayed before inoculation; also: ranges in brackets are in %
Botrytis cinerea = assay: In vivo fungicidal activity: Pepper Botrytis (PB); settings: 200 ppm, sprayed before inoculation; also: ranges in brackets are in %
[1] = test system: Pyricularia grisea f. sp. oryzae; type: in vivo; settings: 200 ppm, sprayed before inoculation, Rice Blast
Cercospora beticola = assay: In vivo fungicidal activity: Sugar Beet Cercospora (SBC); settings: 200 ppm, sprayed before inoculation; also: ranges in brackets are in %
Alternaria solani = assay: In vivo fungicidal activity: Tomato Early Blight (TEB); settings: 200 ppm, sprayed before inoculation; also: ranges in brackets are in %
[2] = test system: Erysiphe graminis f. sp. tritici; assay: In vivo fungicidal activity: Wheat Powdery Mildew (WPM); settings: 200 ppm, sprayed before inoculation; also: ranges in brackets are in %
Septoria nodorum = assay: In vivo fungicidal activity: Wheat Septoria nodorum Blotch (WSN); settings: 200 ppm, sprayed before inoculation
Procedure: Test compounds are dissolved in acetone and diluted with deionized water (95 parts water to 5 parts acetone) containing 0.05% TWEEN 20®, a polyoxyethylene sorbitan monolaurate surfactant manufactured by Atlas Chemical Industries, to give a concentration of 200 ppm.
The plants are sprayed with the test solutions, dried and inoculated with fungi later the same day. When disease symptom development is optimal, the plants are rated for disease control according to the rating scale shown below. Each test contains inoculated treated plants, inoculated untreated plants and a inoculated plants treated with reference fungicides.

[3] = test system: Fusarium oxysporium f. sp. cucumerinum; assay: In vitro fungicidal activity: growth inhibition (FUS OXC); type: cell-based; settings: 25 ppm, 3-7 days at 22° C., nutrient broth; also: ranges in brackets are in %
Procedure: (§1) Test compounds are dissolved in acetone then diluted with deionize water (9 parts water: 1 part acetone), and dispersed into cell well plates containing a suspension of ground fungal mycelium in a nutrient broth resulting in a final concentration of 25 ppm of the test compound. Assay plates are incubated for 3-7 days at 22° C. Growth inhibition is measured visually and is rated using the following scale: […]

[4] = test system: Pseudocercosporella herpotrichoides; assay: In vitro fungicidal activity: growth inhibition (PSDC HE); type: cell-based; settings: 25 ppm, 3-7 days at 22° C., nutrient broth; also: ranges in brackets are in %
Procedure: as §1

Pythium ultimum = assay: In vitro fungicidal activity: growth inhibition (PYTH UL); type: cell-based; settings: 25 ppm, 3-7 days at 22° C., nutrient broth; also: ranges in brackets are in %
Procedure: as §1

Rhizoctonia solani = assay: In vitro fungicidal activity: growth inhibition (RHIZ SO); type: cell-based; settings: 25 ppm, 3-7 days at 22° C., nutrient broth; also: ranges in brackets are in %
Procedure: as §1

| Compound | disease control rating, AS (Venturia inaequalis) | disease control rating, GDM (Plasmopara viticola) | disease control rating, PB (Botrytis cinerea) | disease control rating, RB [1] | disease control rating, SBC (Cercospora beticola) | disease control rating, TEB (Alternaria solani) | disease control rating, WPM [2] | disease control rating, WSN (Septoria nodorum) | growth inhibition rating, FUS OXC [3] | growth inhibition rating, PSDC HE [4] | growth inhibition rating, PYTH UL (Pythium ultimum) | growth inhibition rating, RHIZ SO (Rhizoctonia solani) |
| --- | --- | --- | --- | --- | --- | --- | --- | --- | --- | --- | --- | --- |
| CC1CCN(C2CCC3(CCC(C(C)(C)C)CC3)C2)CC1 (stereo not drawn) [Example 1] | 6 (75-89) | 9 (100) | 8 (96-99) | 0 (0) | 6 (75-89) | 0 (0) | 7 (90-95) | 7 (90-95) | 0 (0) | 7 (90-99) | 7 (90-99) | 9 (100) |
| CCCCC(CC)NC1CCC2(CCC(C(C)(C)C)CC2)C1 (stereo not drawn) [Example 2] | 8 (96-99) | 8 (96-99) | 9 (100) | 0 (0) | 4 (45-59) | 0 (0) | 8 (96-99) | 0 (0) | 0 (0) | 9 (100) | 9 (100) | 7 (90-99) |
| CC(C)(C)C1CCC2(CCC(NC3CCCCC3)C2)CC1 (stereo not drawn) [Example 3] | 8 (96-99) | 5 (60-74) | 9 (100) | 0 (0) | 6 (75-89) | 8 (96-99) | 8 (96-99) | 8 (96-99) | 0 (0) | 0 (0) | 1 (1-29) | 0 (0) |
| C[C@@H]1CN(C2CCC3(CCC(C(C)(C)C)CC3)C2)C[C@H](C)O1 (stereo partly drawn) [Example 4] | 0 (0) | 0 (0) | 9 (100) | 0 (0) | 7 (90-95) | 0 (0) | 9 (100) | 7 (90-95) | 0 (0) | 0 (0) | 0 (0) | 0 (0) |
| CC1CC(C)CN(C2CCC3(CCC(C(C)(C)C)CC3)C2)C1 (stereo not drawn) [Example 5] | 6 (75-89) | 5 (60-74) | 9 (100) | 0 (0) | 7 (90-95) | 0 (0) | 8 (96-99) | 4 (45-59) | 0 (0) | 0 (0) | 0 (0) | 0 (0) |
| CC1CCCC(NC2CCC3(CCC(C(C)(C)C)CC3)C2)C1 (stereo not drawn) [Example 6] | 6 (75-89) | 5 (60-74) | 4 (45-59) | 7 (90-95) | 4 (45-59) | 7 (90-95) | 3 (30-44) | 7 (90-95) | 0 (0) | 7 (90-99) | 7 (90-99) | 9 (100) |
| CC1CCC(NC2CCC3(CCC(C(C)(C)C)CC3)C2)CC1 (stereo not drawn) [Example 7] | 4 (45-59) | 3 (30-44) | 7 (90-95) | 0 (0) | 8 (96-99) | 4 (45-59) | 7 (90-95) | 7 (90-95) | 0 (0) | 7 (90-99) | 7 (90-99) | 9 (100) |
| CC(C)CNC1CCC2(CCC(C(C)(C)C)CC2)C1 (stereo not drawn) [Example 8] | 8 (96-99) | 0 (0) | 6 (75-89) | 0 (0) | 6 (75-89) | 0 (0) | 5 (60-74) | 4 (45-59) | 0 (0) | 7 (90-99) | 7 (90-99) | 9 (100) |
| CN(C1CCCCC1)C1CCC2(CCC(C(C)(C)C)CC2)C1 (stereo not drawn) [Example 9] | 8 (96-99) | 2 (15-29) | 8 (96-99) | 0 (0) | 4 (45-59) | 0 (0) | 7 (90-95) | 6 (75-89) | 0 (0) | 7 (90-99) | 7 (90-99) | 9 (100) |
| CC(C)(C)C1CCC2(CCC(NC3CCCC3)C2)CC1 (stereo not drawn) [Example 10] | 8 (96-99) | 5 (60-74) | 6 (75-89) | 0 (0) | 6 (75-89) | 2 (15-29) | 6 (75-89) | 7 (90-95) | 0 (0) | 9 (100) | 9 (100) | 9 (100) |
| CC(C)(C)C1CCC2(CCC(NC3CCCCCC3)C2)CC1 (stereo not drawn) [Example 11] | 7 (90-95) | 6 (75-89) | 8 (96-99) | 0 (0) | 5 (60-74) | 5 (60-74) | 6 (75-89) | 6 (75-89) | 0 (0) | 9 (100) | 0 (0) | 9 (100) |
| CC(C)(C)C1CCC2(CCC(NCc3ccc(Cl)cc3)C2)CC1 (stereo not drawn) [Example 12] | 7 (90-95) | 0 (0) | 7 (90-95) | 0 (0) | 0 (0) | 0 (0) | 5 (60-74) | 0 (0) | 0 (0) | 9 (100) | 0 (0) | 9 (100) |
